Assay results published in patent US8933019B2, “Antiviral cell-penetrating peptides” (priority 2008, dated 2015).
Bridge positions count the residues as written; N and C are the ends. Square brackets hold non-standard residues; d marks the D form. Peptide text beside a SMILES is read from it. S5 = C=CCCC[C@](C)(N)C(=O)O

How the values were obtained:
Assay type in all cases: cell-based
[1] = tested on: HIV-1 89.6; conditions: laboratory strain, subtype B, PBMC, coreceptor R5X4; read-out: IC50 (μM ± SD), HIV-1 89.6
Experimental: (§1) The inhibitory activity of peptides on infection by primary HIV-1 isolates was determined as previously described (Jiang et al., Antimicrob. Agents Chemother. 48:4349-4359, 2004). Peripheral blood mononuclear cells (PBMCs) were isolated from the blood of healthy donors at the New York Blood Center by standard density gradient centrifugation using Histopaque-1077 (Sigma-Aldrich). The cells were cultured at 37° C. for 2 hr. Nonadherent cells were collected and resuspended at 5×10^6 cells/ml RPMI-1640 medium containing 10% FBS, 5 μg/ml PHA, and 100 U/ml IL-2 (Sigma-Aldrich), followed by incubation at 37° C. for 3 days. The PHA-stimulated cells (5×10^4 cells/well) were infected with primary HIV-1 isolates at 500 TCID50 (0.01 MOI) in the absence or presence of peptide inhibitor at graded concentrations. Culture media were changed every 3 days and replaced with fresh media containing freshly prepared inhibitor. The supernatants were collected 7 days post-infection and tested for p24 antigen by ELISA (FIG. 6). The percent inhibition of p24 production, IC50 and IC90 values were calculated by the GraphPad Prism software (GraphPad Software Inc.).
(§2) In addition, NYAD-201, NYAD-202 and NYAD-203 were also tested using several laboratory-adapted and primary isolates in MT-2 cells and PBMC (peripheral blood mononuclear cells), respectively. The inhibition of p24 production in MT-2 cells by NYAD-201 and its analogs were measured over a range of concentrations and the concentration required to inhibit 50% (IC50) of the p24 production was calculated. […] NYAD-201 and its analogs inhibited the laboratory strains with low μM potency (IC50˜2-8 μM), and both R5- and X4-tropic viruses were inhibited with similar potency.

[2] = tested on: HIV-1 BaL; conditions: laboratory strain, subtype B, PBMC, coreceptor R5; read-out: IC50 (μM ± SD), HIV-1 BaL
Experimental: as §1, §2

[3] = tested on: HIV-1 92UG029; assay: Inhibition of primary HIV-1 isolate, p24 ELISA, PBMC; conditions: subtype A, coreceptor X4, read-out: IC50 (μM ± SD), HIV-1 92UG029
Experimental: as §1
(§3) NYAD-201, NYAD-202 and NYAD-203 were also tested against a set of primary HIV-1 isolates in PBMC representing mostly group M and one from group O with diverse coreceptor usage. […] The inhibitory activities of the peptides against this diverse range of primary isolates were similar, indicating its effectiveness against a wide range of HIV-1 isolates.

[4] = tested on: HIV-1 93RW024; assay: as above; conditions: subtype A, coreceptor R5X4, read-out: IC50 (μM ± SD), HIV-1 93RW024
Experimental: as §1, §3

[5] = tested on: HIV-1 CMU02; assay: as above; conditions: subtype EA, coreceptor X4, read-out: IC50 (μM ± SD), HIV-1 CMU02
Experimental: as §1, §3

[6] = tested on: HIV-1 93BR020; assay: as above; conditions: subtype F, coreceptor R5X4, read-out: IC50 (μM ± SD), HIV-1 93BR020
Experimental: as §1, §3

[7] = tested on: HIV-1 RU570; assay: as above; conditions: subtype G, coreceptor R5, read-out: IC50 (μM ± SD), HIV-1 RU570
Experimental: as §1, §3

[8] = tested on: HIV-1 BCF02; assay: as above; conditions: (Group 0), coreceptor R5, read-out: IC50 (μM ± SD), HIV-1 BCF02
Experimental: as §1, §3

[9] = tested on: HIV-1 93IN101; assay: as above; conditions: subtype C, coreceptor R5, read-out: IC50 (μM ± SD), HIV-1 93IN101
Experimental: as §1, §3

[10] = tested on: HIV-1 98CN009; assay: as above; conditions: subtype C, coreceptor R5, read-out: IC50 (μM ± SD), HIV-1 98CN009
Experimental: as §1, §3

[11] = tested on: HIV-1 92US657; assay: as above; conditions: subtype B, coreceptor R5, read-out: IC50 (μM ± SD), HIV-1 92US657
Experimental: as §1, §3

Question: For `CSCC[C@@H]1NC(=O)[C@H](Cc2c[nH]c3ccccc23)NC(=O)[C@@](C)(NC(=O)[C@H](CCCCN)NC(=O)[C@@H](NC(=O)[C@H](CCC(=O)O)NC(=O)[C@H](CCC(N)=O)NC(=O)[C@H](C)N)C(C)C)CCCC=CCCC[C@@](C)(C(=O)N[C@H](C(=O)N[C@@H](CC(C)C)C(=O)N[C@@H](CC(C)C)C(=O)N[C@H](C(=O)N[C@@H](C)C(N)=O)C(C)C)[C@@H](C)O)NC(=O)[C@H]([C@@H](C)O)NC1=O` [NYAD-201, AQEVKXWMTXTLLVA] (H-AQEVK[S5]WMT[S5]TLLVA-NH2; staple 6-10), which IC50 [1] is on record?
Answer: 5.21 ± 0.87 µM

Question: What about the IC50 [2] of the same compound?
Answer: 4.73 ± 1.92 µM

Question: What about the IC50 [3] of the same compound?
Answer: 7.88 ± 1.01 µM

Question: What about the IC50 [4] of the same compound?
Answer: 9.88 ± 0.3 µM

Question: And the IC50 [5]?
Answer: 7.36 ± 0.69 µM

Question: And the IC50 [6]?
Answer: 2.78 ± 0.57 µM

Question: What about the IC50 [7] of the same compound?
Answer: 7.48 ± 1.21 µM

Question: And the IC50 [8]?
Answer: 15.8 ± 3.43 µM

Question: What about the IC50 [9] of the same compound?
Answer: 1.58 ± 0.57 µM

Question: What about the IC50 [10] of the same compound?
Answer: 5.31 ± 0.83 µM

Question: What about the IC50 [11] of the same compound?
Answer: 6.72 ± 0.98 µM
